Results: a melting point compilation (Tetko et al.)

Row | SMILES | melting point [°C]
1 | O=C(CCl)C(Cl)(Cl)Cl | 65
2 | Cc1ccc2cc3c(cc2n1)CCC(C)N3 (centres undefined) | 171
3 | CCCCCCCCCCC1CCCC1 | -22
4 | Sc1nc2cc(Cl)c(Cl)cc2[nH]1 | 300
5 | CC(=O)OCc1cn(C(C)=O)c2ccccc12 | 85 to 86
6 | C=COC(=O)C(CC)CCCC (centres undefined) | -90
7 | CC(=O)c1ccc(-c2ccccc2[N+](=O)[O-])o1 | 79
8 | COc1ccc[nH]c1=O | 115
9 | BrC(=NNc1ccccc1)c1ccccc1 | 190
10 | Cc1nc(NC(=N)N)sc1Br | 203 to 205
11 | O=[N+]([O-])c1ccc2c(c1)S(=O)(=O)CC2SCCO (centres undefined) | 127 to 129
12 | CC12CCC3C(CCC4CC(=NO)CCC43C)C1CCC2O (centres undefined) | 198 to 199
13 | CCCOCCO | -70
14 | Fc1cccc(P(c2cccc(F)c2)c2cccc(F)c2)c1 | 61.5
15 | COC1(C=O)C=CC2=C(C1)OCO2 (centres undefined) | 129
16 | O=C1CCCCCC1=O | -40
17 | CC12CCC(O)CC1CCC1C3CCC(O)(C#Cc4ccccc4)C3CCC12 (centres undefined) | 118 to 125
18 | CC(C)(C)OC(=O)N1CCC(C#N)CC1 | 47
19 | Cc1ccc(Cl)cc1C(=O)O | 168 to 170
20 | CSc1ccccc1C(=O)O | 170 to 173
21 | CCCCCCCCCCCCCCCCN | 46.8
22 | CCCCC(CC)CN (centres undefined) | -76

Row | SMILES | melting point [°C]
23 | O=C(O)c1cc([N+](=O)[O-])c(Cl)c([N+](=O)[O-])c1 | 161
24 | CCOC(=O)C(C)(C)N1CCN(c2ccc(Cl)cc2)CC1 | 56
25 | COc1ccc2c(c1)CCC1C2CCC2(C)C(O)C(O)CC12 (centres undefined) | 159
26 | O=Cc1cccc2c(Br)ccc([N+](=O)[O-])c12 | 135
27 | N#C/C(=N\Nc1cccc([N+](=O)[O-])c1)c1nc2ccccc2[nH]1 | 306 to 308
28 | Cc1ccc(C)c2ncccc12 | 4.5
29 | Clc1cccnc1Br | 60
30 | COc1cccc2onc(N)c12 | 140 to 142
31 | Cc1cc(=O)n(N)c(=S)[nH]1 | 262
32 | Brc1ccc(N(c2ccc(Br)cc2)c2ccc(Br)cc2)cc1 | 142
33 | COc1ccc(-c2ccccc2)cc1NC(=O)C(C(F)(F)F)C(F)(F)F | 211
34 | O=Cc1nc(-c2ccccc2Cl)c2cc(Cl)ccc2n1 | 159 to 160
35 | Cc1c2ccccc2nc2ccccc12 | 118
36 | COc1cccc(N2C(=O)C=CC2=O)c1 | 62 to 66
37 | O=C(O)CC1CCCCC1 | 33
38 | CC(=O)C=C(C)N | 39
39 | CCOc1cc(OP(=S)(OC)OC)nc(CC)n1 | -3.35
40 | COc1ccc(C(N)CCO)cc1 (centres undefined) | 82 to 86
41 | CC1CC(=O)C(C)(C)C1 (centres undefined) | -40.6
42 | NCCCC1C=NNC1=O (centres undefined) | 216
43 | O=C(NC(=O)c1c(F)cccc1F)Nc1cc(Cl)c(Oc2ncc(C(F)(F)F)cc2Cl)c(Cl)c1 | 223
44 | CCCCc1ccc(C(=O)O)cc1 | 106

Row | SMILES | melting point [°C]
45 | CC12COC(=O)CC1CCC1C2CCC2(C)C1CCC2(C)O (centres undefined) | 236
46 | CC1=CC(=O)c2c(O)cccc2C1=O | 78.5
47 | O=C(CI)OC(=O)CI | 43 to 49
48 | COc1cc(OC)nc(NC(=O)NS(=O)(=O)c2cc(NC=O)ccc2C(=O)N(C)C)n1 | 194
49 | C=CCC1=C(C)C(OC(=O)C2C(C=C(C)C)C2(C)C)CC1=O (centres undefined) | 4
50 | CN(C)c1ccc(C=C2N=C(c3ccccc3)OC2=O)cc1 | 204 to 205
51 | CC1C(=O)OC(C)(C)OC1=O | 109 to 113
52 | N#Cc1c2ncccc2c(=O)n2c1sc1ccccc12 | 275
53 | Cc1cc([N+]([O-])=Nc2ccccc2)c(C(C)C)cc1[N+]([O-])=Nc1ccccc1 | 127
54 | CC(=O)N(Nc1ccccc1)c1ccc(-c2ccc(/N=N/c3ccccc3)cc2)cc1 | 244
55 | CCOc1ccc2nc(S(N)(=O)=O)sc2c1 | 188
56 | Cc1cc2ccccc2cc1C | 105
57 | O=S(=O)(Cl)c1ccc(-c2ccno2)s1 | 69 to 70
58 | Brc1cccc2c1Oc1cccc(Br)c1O2 | 207
59 | CC(/C=C(\C)c1ccc(-c2ccccc2)cc1)=NNS(=O)(=O)c1ccc(C)cc1 | 132 to 134
60 | NC(=O)CN1CCCC1=O | 152
61 | Fc1ccc(Br)cc1Br | 69
62 | O=C1C=CC2=CC(=O)C=CC(=C1)C2 | 122
63 | CCCCCCCCCCCC(=O)OOC(=O)CCCCCCCCCCC | 53 to 57
64 | FC1(F)C(F)(F)C(F)(F)C2(F)C(F)(C1(F)F)C(F)(F)C(F)(F)C1(F)C(F)(F)C(F)(F)C(F)(F)C(F)(F)C12F (centres undefined) | -20
65 | c1ccc2c(c1)OCCOCCOCCOCCOc1ccccc1OCCOCCO2 | 59 to 63
66 | O=C1/C(=C/c2ccccc2O)SC(=S)N1CN(CCCl)CCCl | 233

The remaining lines, values ahead:

Row | melting point [°C] | SMILES
67 | 202 to 207 | O=CC(C=O)c1cnccn1
68 | 239 to 240 | Cc1ncoc1C(=O)O
69 | 78 | CC(=O)OCC(COC(C)=O)OC(C)=O
70 | 165 | Cc1ccc(S(=O)(=O)Nc2cc(N)c([N+](=O)[O-])cc2NS(=O)(=O)c2ccc(C)cc2)cc1
71 | 297 to 299 | O=C(O)c1ccc(Br)c(C(=O)O)c1
72 | 196 to 201 | O=C(O)c1cc(I)ccc1O
73 | -18 | CCCCCCCCCC(=O)OC
74 | 81 | COC(=O)c1sc2ccccc2c1Cl
75 | 186 | Cc1cc(O)c(C(C)(C)C)cc1C(C)CC(c1cc(C(C)(C)C)c(O)cc1C)c1cc(C(C)(C)C)c(O)cc1C (centres undefined)
76 | 143 to 145 | Cc1n[nH]c2c(=O)n(C(C)C)c(C)nc12
77 | 99 to 101 | NC(=NO)c1ccccc1OC(F)(F)F
78 | -3 | C#CC(C)O (centres undefined)
79 | 159 to 163 | Cc1c(C)c(C)c(CO)c(C)c1C
80 | 147 | Cc1ccsc1C(=O)O
81 | 190 to 192 | O=C(NC1CCCCC1)C(C(F)(F)F)C(F)(F)F
82 | 175 to 177 | c1ccc2c(c1)ccc1nncn12
83 | 138 to 141 | Cc1ccc(Sc2ccc(C=O)cc2[N+](=O)[O-])cc1
84 | 59 | CCCCCCCCCCCCCCCC(=O)c1ccccc1
85 | 60 | CCOC(=O)C(C#N)c1ccccc1[N+](=O)[O-] (centres undefined)
86 | 80 | CCOC(=O)C(=Cc1cc(C=C(C(=O)OCC)C(=O)OCC)cc([N+](=O)[O-])c1)C(=O)OCC
87 | 20.5 | N#CC#CC#N

Row | melting point [°C] | SMILES
88 | 203 | Clc1cccc(Cl)c1-c1nnn[nH]1
89 | 187 to 190 | CCOC(=O)NC(=S)Nc1sc2c(c1C(=O)OCC)CCCC2
90 | 7 | Cc1c(F)cccc1[N+](=O)[O-]
91 | 206 to 207 | COc1ccc(CCN2CCc3c([nH]c4ccccc34)C2=O)cc1OC
92 | 35 | Cc1nn(C)c(C)c1Br
93 | 70 | Clc1ccc(Br)cn1
94 | 135 | O=C(O)c1cccc(S(=O)(=O)Cl)c1
95 | 109 | CCOc1ccc(-c2nnc3n2NC(c2ccc(Cl)cc2)S3)cc1 (centres undefined)
96 | 230 | Oc1ccc(-c2nnc3n2NC(c2ccco2)S3)cc1 (centres undefined)
97 | 119 to 122 | CCOC(=O)c1sc(SCc2ccccc2)c2c1CC(C)(C)CC2=O
98 | 68 | CC1CCC(C(C)C)C(OC(=O)C2=CCC(C(=O)OC3CC(C)CCC3C(C)C)=CC2)C1 (centres undefined)
99 | 128 | CCCc1ccc(OCC(=O)N2CCN(C(=O)COc3ccc(CCC)cc3OC)CC2)c(OC)c1
100 | 18 to 20 | O=C(Cl)c1cccc(S(=O)(=O)Cl)c1
101 | -11 | Cc1ccncc1C
102 | 48 | CC(C)[Si](C(C)C)(C(C)C)C1SCCCS1
103 | 147 to 149 | O=C(O)CCn1ccnc1
104 | 163 to 164 | O=C(O)c1cnc(NCc2ccccc2)s1
105 | 124 | COC(=O)c1cc2cc3c(cc2cc1C(=O)OC)CC3
106 | 140 to 142 | O=C1C=C(NCCNc2ccccc2)C(=O)c2ccccc21
107 | 277 to 279 | FC(F)(F)c1ccc2[nH]c(S)nc2c1
108 | 134 | ON=Cc1cccc2c(Br)cccc12

Row | melting point [°C] | SMILES
109 | 131 to 132 | O=Cc1ccc(I)c(O)c1
110 | 148 to 149 | Cc1ccc(S(=O)(=O)NC(=S)Nc2ccccc2)cc1
111 | 115 to 117 | Cc1noc(-c2ccc(C(=O)Cl)cc2)n1
112 | 130 | CCOC(=O)C(CC)c1ccc(C)cc1 (centres undefined)
113 | 75 | O=[N+]([O-])c1ccccc1N=C=S
114 | 270 | N#C/C(=N\Nc1cccc(C(F)(F)F)c1)c1nc2ccccc2[nH]1
115 | 186 to 188 | CC(CCC(=O)O)C1CCC2C3CCC4CCCCC4(C)C3CC(O)C12C (centres undefined)
116 | 235 | COc1ccc(-c2csc(/C(C#N)=C\c3cccnc3)n2)cc1
117 | 300 | CN(c1ccc2cc3ccc4c(c3nc2c1)COCN4)S(C)(=O)=O
118 | 143 | CCC(C(N)=O)n1nnc2ccccc21 (centres undefined)
119 | 186 to 189 | CC(=O)N[C@H]1[C@H](OC(C)=O)O[C@H](COC(C)=O)[C@@H](OC(C)=O)[C@@H]1OC(C)=O
120 | 118 | c1ccc(Cc2nc3ccccc3nc2Cc2ccccc2)cc1
121 | 40 | C#Cc1cccnc1
122 | 202 to 204 | O=C(O)C=Cc1cccc([N+](=O)[O-])c1
123 | 239 | O=Nc1c(-c2cccs2)nc2ncccn12
124 | 39 | CC(C)(C)OC(=O)NN
125 | 149 | O=C(O)COC(=O)Cc1ccccc1Nc1c(Cl)cccc1Cl
126 | 221 | O=C(C1=NOC2C(=O)N(c3cc(Cl)ccc3Cl)C(=O)C12)c1cccs1 (centres undefined)
127 | 217 | O=C(O)C1(C(=O)O)C2CCCCCCC21 (centres undefined)
128 | 29 | CCOC(=O)CCCCC(=O)O
129 | 188 | O=c1[nH]ncc2ccccc12
